Measured values: ChEMBL document CHEMBL3232891, “Medicinal attributes of pyrazolo[3,4-d]pyrimidines: a review” (Bioorg Med Chem, 2013)
≈ marks a conversion by molar mass, not a printed value.

What was measured:
[1] = tested on: Daoy; assay: Cytotoxicity against human DaOY cells after 48 hrs by MTS assay; type: functional, cell-based
[2] = tested on: Enterococcus raffinosus; assay: Antibacterial activity against Enterococcus raffinosus; type: functional
[3] = tested on: Staphylococcus aureus; assay: Antibacterial activity against Staphylococcus aureus; type: functional
[4] = Growth inhibition of human NPC-TW01 cells; type: functional
[5] = tested on: NCI-H226; assay: Growth inhibition of human NCI-H226 cells; type: functional
[6] = tested on: Jurkat; assay: Growth inhibition of human Jurkat cells; type: functional
[7] = tested on: Mycobacterium tuberculosis; assay: Antitubercular activity against Mycobacterium tuberculosis assessed as growth inhibition; type: functional
[8] = Cytotoxicity against human Saos2 cells assessed as inhibition of cell viability at 25 uM after 48 hrs by MTT assay relative to control; type: functional; conditions: SAOS-2, 48 h
[9] = Cytotoxicity against human Saos2 cells after 48 hrs by MTT assay; type: functional, cell-based; conditions: SAOS-2, 48 h
[10] = tested on: HL-60; assay: Cytotoxicity against human HL60 cells by MTT assay; type: functional, cell-based

**Q.** Which IC50 [1] does the source give for Fc1cccc(CNc2ncnc3c2cnn3CC(Cl)c2ccc(Br)cc2)c1 (configuration not stated) here?
**A.** Its IC50 is 3.5 µM.

**Q.** For Nc1n[nH]c2nc(-c3ccccc3)nc(-c3ccc(Br)cc3)c12, which MIC [2] is on record?
**A.** Its MIC is 12.3 µM (≈ 4.5 µg/mL).

**Q.** And the MIC [3]?
**A.** Its MIC is 3.8 µM (≈ 1.39 µg/mL).

**Q.** Which results are given for Clc1ccc(-c2nn(-c3ccccc3)c3ncncc23)cc1?
**A.** GI50 [4]: 23 µM; GI50 [5]: 18 µM; GI50 [6]: 36 µM

**Q.** With Cc1ccc(-c2nn(-c3ccc4ccccc4n3)c3ncncc23)cc1 as the compound, how does the GI50 [4] read?
**A.** Its GI50 is 30 µM.

**Q.** What about the GI50 [5] of the same compound?
**A.** The GI50 was 29 µM.

**Q.** And the GI50 [6]?
**A.** The GI50 was 54 µM.

**Q.** Which GI50 [4] does the source give for Clc1ccc(-c2nn(-c3ccc4ccccc4n3)c3ncncc23)cc1 here?
**A.** The GI50 was 35 µM.

**Q.** And the GI50 [5]?
**A.** Its GI50 is 39 µM.

**Q.** And the GI50 [6]?
**A.** The GI50 was 69 µM.

**Q.** Which GI50 [4] does the source give for COc1ccc(-c2nn(-c3ccc4ccccc4n3)c3ncncc23)cc1 here?
**A.** The GI50 was 36 µM.

**Q.** What about the GI50 [5] of the same compound?
**A.** The GI50 was 37 µM.

**Q.** What about the GI50 [6] of the same compound?
**A.** The GI50 was greater than 100 µM.

**Q.** What does the source list for COc1ccc(-c2nc(-c3ccccc3)nc3[nH]nc(N)c23)cc1?
**A.** MIC [2]: 14.2 µM (≈ 4.51 µg/mL); MIC [3]: 4.2 µM (≈ 1.33 µg/mL)

**Q.** For Nc1n[nH]c2nc(-c3ccccc3)nc(-c3ccc(Cl)cc3)c12, which MIC [2] is on record?
**A.** The MIC was greater than 300 µM.

**Q.** What about the MIC [3] of the same compound?
**A.** Its MIC is 190 µM (≈ 61.2 µg/mL).

**Q.** For Nc1ccc(-c2nc(-c3ccccc3)nc3[nH]nc(N)c23)cc1, which MIC [2] is on record?
**A.** The MIC was 82.8 µM (≈ 25 µg/mL).

**Q.** And the MIC [3]?
**A.** The MIC was 34.5 µM (≈ 10.4 µg/mL).

**Q.** For C#CCn1ncc2c(SCc3ccccc3)ncnc21, which “inhibition (INH)” value [7] is on record?
**A.** The value was greater than 90%.

**Q.** What about the MIC ([7]; Mycobacterium tuberculosis) of the same compound?
**A.** Its MIC is 12.5 µg/mL (≈ 44.6 µM).

**Q.** With CSc1nc(Nc2cccc(Cl)c2)c2cnn(CC(Cl)c3ccccc3)c2n1 (configuration not stated) as the compound, how does the inhibition at 25 µM [8] read?
**A.** Its inhibition at 25 µM is 93.3%.

**Q.** And the IC50 [9]?
**A.** The IC50 was 11.6 µM.

**Q.** With Fc1ccc(CNc2ncnc3c2cnn3CC(Cl)c2ccc(Cl)cc2)cc1 (configuration not stated) as the compound, how does the IC50 [1] read?
**A.** The IC50 was 1.72 µM.

**Q.** With CC(C)(C)n1nc(-c2ccc(Cl)cc2)c2c(N)ncnc21 as the compound, how does the inhibition at 25 µM [8] read?
**A.** Its inhibition at 25 µM is 85.3%.

**Q.** What about the IC50 [9] of the same compound?
**A.** Its IC50 is 8.07 µM.

**Q.** For CCCCNc1ncnc2c1cnn2CC(Cl)c1ccccc1 (configuration not stated), which inhibition at 25 µM [8] is on record?
**A.** The inhibition at 25 µM was 71.1%.

**Q.** And the IC50 [9]?
**A.** The IC50 was 14.6 µM.

**Q.** What about the IC50 [1] of the same compound?
**A.** Its IC50 is 6.24 µM.

**Q.** With COc1cccc2c1C(=O)c1c(O)c3c(c(O)c1C2=O)C[C@@](O)(C(=O)CO)C[C@@H]3O[C@H]1C[C@H](N)[C@H](O)[C@H](C)O1 [DOXORUBICIN] as the compound, how does the IC50 [10] read?
**A.** The IC50 was 0.55 µM.
